From paper PMC9131871, “Impact of Micropolymorphism Outside the Peptide Binding Groove in the Clinically Relevant Allele HLA-C*14 on T Cell Responses in HIV-1 Infection” (Journal of Virology, 2022)

Assays:
[1] = system: T cells of a volunteer enrolled in an HIV vaccine trial; details: cited from earlier work
Description: We identified 6 HLA-C*14:02/C*14:03 epitopes in the present study. Five of these peptides were detected by LC-MS/MS in HLA-I eluates from both HLA-C*14:02^+ and HLA-C*14:03^+ .221 cells infected with HIV-1, and T cells specific for all 6 epitopes effectively recognized both HIV-1-infected HLA-C*14:02^+ and HLA-C*14:03^+ .221 cells. […] Responses to two of these peptides, Gag LY9 and Nef YT9, were identified in a previous study that analyzed T cell responses ...

HLA-C*14:03 = HLA-C*14:03 (Homo sapiens, UniProt P10321, A176E/A330V/A35S/A97T/C350S/D114A/D33S/L171W/L180R/L218V/M285V/M309V/M331V/P208H/Q277E/Q291P/R121W/R243W/R45H/S123F/S297R/S48A/T329A/T363A/V319A); assay: HLA stabilization assay on RMA-S-C1403 cells; assay type: cell-based; details: 100 μM peptide, 26°C 1 h then 37°C 3 h, MAb DT-9 staining, flow cytometry, triplicate assays
Description: (§1) We next sought to confirm the HLA-C*14:02/C*14:03 restriction of the HIV-1 peptides identified by LC-MS/MS. First, we tested their ability to bind to HLA-C*14:02 or HLA-C*14:03 using HLA stabilization assays. Of the 25 HIV-1 peptides, three Env peptides, Env SI8, Env AM11, and Env VM9, are located in variable regions V2 and V3. In addition, Pol AF10, Pol PF8, Pol VWL9, and Env YI9 are located in regions where high sequence variation is reported in the LANL database. Therefore, we excluded these peptides from further analysis. The other 18 peptides were synthesized and tested for binding to HLA-C*14:02/C*14:03 by analyzing their ability to stabilize surface HLA expression on TAP-defective RMA-S cell lines expressing HLA-C*14:02 (RMA-S-C1402) or HLA-C*14:03 (RMA-S-C1403). These RMA-S cell lines express equivalent levels of HLA-C*14:02 and HLA-C*14:03 on the cell surface at 26°C, and surface HLA expression declines to very low levels when the cells are warmed to 37°C in the absence of exogenously added stabilizing peptides (Fig. 2A). Peptide binding was determined by evaluating whether HLA-I expression was stabilized in the presence of 100 μM peptide.
(§2) FIG 2 HLA-C*14:02/14:03 binding of HIV-1 peptides eluted from NL4-3-infected .221-C1402 and .221-C1403 cells as assessed by HLA stabilization assay using RMA-S cell lines. (A) Histogram plots showing surface expression of HLA-C*14:02 or HLA-C*14:03 on RMA-S-C1402 or RMA-S-C1403 cells at 26°C and after cells cultured at 26°C had been warmed to 37°C for 3 h. MFI values of cells cultured at 26°C were 27.4 for HLA-C*14:02 and 28.1 for HLA-C*14:03. MFI values of cells cultured at 37°C for 3 h were 5.0 for HLA-C*14:02 and 6.54 for HLA-C*14:03. (B) Analysis of binding of 14 HIV-1 NL4.3 peptides identified by LC-MS/MS to HLA-C*14:02 (blue) or HLA-C*14:03 (red) as measured in HLA class I stabilization assays using RMA-S-C1402 or RMA-S-C1403 cells. (C) Analysis of binding of 9 additional variant peptides to HLA-C*14:02 (blue) or C*14:03 (red). For panels B and C, peptides were tested at a concentration of 100 μM. Results are plotted as percent surface HLA-I expression relative to that at 26°C, calculated as the ratio of the MFI of peptide-pulsed RMA-S-C1402 or RMA-S-C1403 cells to that of control (non-peptide-pulsed) cells kept at 26°C, multiplied by 100. Means and standard deviations (SDs) from triplicate assays are shown. Statistical analyses were performed by unpaired t test. The P values were corrected for multiple testing. *, P < 0.05 and q < 0.05; **, P < 0.01 and q < 0.03; ***, P < 0.001 and q < 0.005.
(§3) The relative affinity of peptide binding to HLA-C*14:02 and -C*14:03 was examined using RMA-S-C1402 and RMA-S-C1403 cells as previously described ([15]). Briefly, RMA-S cells were cultured at 26°C for 16 h, pulsed with peptides at 26°C for 1 h, and subsequently incubated at 37°C for 3 h. Staining of cell surface HLA-C molecules was performed with the HLA-C-reactive monoclonal antibody (MAb) DT-9 ([48]), a gift from Mary Carrington, NIH, and fluorescein isothiocyanate (FITC)-conjugated sheep anti-mouse IgG (Jackson ImmunoResearch). Staining data were acquired on a FACSCanto II instrument (BD Biosciences) and analyzed using FlowJo 10.7.1 software. Relative HLA expression was calculated as the ratio of the mean fluorescence intensity (MFI) of peptide-pulsed RMA-S-C1402 cells or RMA-S-C1403 cells to that of control (non-peptide-pulsed) cells kept at 26°C, multiplied by 100 to express the values for peptide-pulsed cells as a percentage of that for the control cells at 26°C.

HLA-C*14:02 = HLA-C*14:02 (Homo sapiens, UniProt P10321, A176E/A330V/A35S/A97T/C350S/D114A/D33S/L171W/L180R/L218V/M285V/M309V/M331V/P208H/Q277E/Q291P/R121W/R243W/S123F/S297R/S48A/T329A/T363A/V319A); assay: HLA stabilization assay on RMA-S-C1402 cells; assay type: cell-based; details: 100 μM peptide, 26°C 1 h then 37°C 3 h, MAb DT-9 staining, flow cytometry, triplicate assays
Description: as §1, §2, §3

Sequence | HLA-C*14-restricted HIV-1 epitope status [1] | binding to HLA-C*14:03 (stabilization of surface HLA expression) (HLA-C*14:03) | binding to HLA-C*14:02 (stabilization of surface HLA expression) (HLA-C*14:02)
LYNTVATL [Gag LL8-5V7T] | identified as an HLA-C*14-restricted HIV-1 epitope |  | 
FHHMAREK [NefFL8-4M8K, variant of Nef FL8, FHHMAREK, present in Japanese cohort viruses] |  | detectable binding to the HLA-C*14 molecules with the exception of NefFL8-4M8K | detectable binding to the HLA-C*14 molecules with the exception of NefFL8-4M8K
